Source: the NIST ThermoML archive (doi:10.1016/j.jct.2016.01.012)

How the values were obtained:
[1] = xn = mol fraction of the nth substance listed; settings: 100 kPa, Liquid; for viscosity: Falling or rolling sphere viscometry; for mass density: Vibrating tube method; for electrical conductivity: Direct current cell with electrodes
[2] = refractive index (Na D-line) (dimensionless); xn = mol fraction of the nth substance listed; settings: 298.15 K, 100 kPa, Liquid, Standard Abbe refractometry

CN(C)C(=[NH2+])N(C)C.c1c[n-]cn1 [1,1,3,3-tetramethylguanidinium imidazol-1-ide] + O
[1]
Settings	electrical conductivity [S/m]	mass density [kg/m3]	viscosity [mPa·s]
293.15 K, x1 = 0.0511	–	1023.04	3.157
293.15 K, x1 = 0.0991	–	1024.53	5.561
293.15 K, x1 = 0.207	–	1025.54	10.23
293.15 K, x1 = 0.3005	–	1019.92	14.29
293.15 K, x1 = 0.3834	–	1015.77	15.79
293.15 K, x1 = 0.4978	–	1010.24	16.03
293.15 K, x1 = 0.6356	–	1005.44	14.5
293.15 K, x1 = 0.8019	–	1001.45	12.12
293.15 K, x1 = 0.8984	–	999.17	10.19
293.15 K, x1 = 1	–	997.25	8.952
298.15 K, x1 = 0.002	1.524	–	–
298.15 K, x1 = 0.003	1.88	–	–
298.15 K, x1 = 0.0039	2.47	–	–
298.15 K, x1 = 0.005	2.88	–	–
298.15 K, x1 = 0.006	3.19	–	–
298.15 K, x1 = 0.008	3.36	–	–
298.15 K, x1 = 0.01	3.67	–	–
298.15 K, x1 = 0.0149	3.96	–	–
298.15 K, x1 = 0.0199	3.93	–	–
298.15 K, x1 = 0.0299	3.72	–	–
298.15 K, x1 = 0.0398	3.22	–	–
298.15 K, x1 = 0.0499	2.7	–	–
298.15 K, x1 = 0.0511	–	1019.97	2.519
298.15 K, x1 = 0.0599	2.31	–	–
298.15 K, x1 = 0.0699	1.97	–	–
298.15 K, x1 = 0.0799	1.711	–	–
298.15 K, x1 = 0.0893	1.517	–	–
298.15 K, x1 = 0.0991	–	1020.57	4.311
298.15 K, x1 = 0.0996	1.31	–	–
298.15 K, x1 = 0.1495	0.767	–	–
298.15 K, x1 = 0.1994	0.53	–	–
298.15 K, x1 = 0.207	–	1021.21	7.645
298.15 K, x1 = 0.3005	–	1015.51	11.07
298.15 K, x1 = 0.3504	0.272	–	–
298.15 K, x1 = 0.3834	–	1011.35	12.14
298.15 K, x1 = 0.4978	–	1005.81	12.35
298.15 K, x1 = 0.4989	0.215	–	–
298.15 K, x1 = 0.6356	–	1001	11.28
298.15 K, x1 = 0.6512	0.195	–	–
298.15 K, x1 = 0.8019	–	997.07	9.561
298.15 K, x1 = 0.8447	0.205	–	–
298.15 K, x1 = 0.8984	–	994.72	8.186
298.15 K, x1 = 1	0.218	992.8	7.287
303.15 K, x1 = 0.0511	–	1016.67	2.148
303.15 K, x1 = 0.0991	–	1016.58	3.601
303.15 K, x1 = 0.207	–	1016.83	6.045
303.15 K, x1 = 0.3005	–	1011.06	8.853
303.15 K, x1 = 0.3834	–	1006.9	9.629
303.15 K, x1 = 0.4978	–	1001.35	9.809
303.15 K, x1 = 0.6356	–	996.54	9.023
303.15 K, x1 = 0.8019	–	992.72	7.768
303.15 K, x1 = 0.8984	–	990.26	6.72
303.15 K, x1 = 1	–	988.35	6.044
308.15 K, x1 = 0.0511	–	1013.28	1.854
308.15 K, x1 = 0.0991	–	1012.53	3.021
308.15 K, x1 = 0.207	–	1012.42	4.956
308.15 K, x1 = 0.3005	–	1006.59	7.201
308.15 K, x1 = 0.3834	–	1002.43	7.806
308.15 K, x1 = 0.4978	–	996.88	7.952
308.15 K, x1 = 0.6356	–	992.07	7.354
308.15 K, x1 = 0.8019	–	988.36	6.42
308.15 K, x1 = 0.8984	–	985.81	5.611
308.15 K, x1 = 1	–	983.9	5.097
313.15 K, x1 = 0.0511	–	1009.78	1.617
313.15 K, x1 = 0.0991	–	1008.4	2.592
313.15 K, x1 = 0.207	–	1007.97	4.126
313.15 K, x1 = 0.3005	–	1002.09	5.934
313.15 K, x1 = 0.3834	–	997.94	6.428
313.15 K, x1 = 0.4978	–	992.4	6.542
313.15 K, x1 = 0.6356	–	987.61	6.07
313.15 K, x1 = 0.8019	–	983.97	5.363
313.15 K, x1 = 0.8984	–	981.34	4.756
313.15 K, x1 = 1	–	979.46	4.358

[2]
Settings	refractive index
x1 = 0.0511	1.3973
x1 = 0.0991	1.4278
x1 = 0.207	1.4589
x1 = 0.3005	1.4722
x1 = 0.3834	1.4787
x1 = 0.4978	1.485
x1 = 0.6356	1.4889
x1 = 0.8019	1.4922
x1 = 0.8984	1.4923
x1 = 1	1.4943
